Like-named read-outs stand apart in the source and are kept apart here.
Key:
velvetleaf = assay: Test A pre-/postemergence herbicide test; format: in vivo, Abutilon theophrasti; conditions: Abutilon theophrasti, 240 h; for pest or weed control at 2000 g/ha: 2000 g ai/ha
In short: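 Visual injury scores on a 0–100 scale (100 = complete control) taken about ten days post-treatment in greenhouse against untreated controls; dash means no result. Treatments: preemergence soil spray and postemergence spray to runoff on one- to two-leaf plants 2 to 10 cm tall, surfactant-containing formulation.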

Surinam grass = assay: Test C pre-/postemergence herbicide test; format: in vivo, Urochloa decumbens; conditions: for pest or weed control at 125 g/ha: 125 g ai/ha
In short: (§1)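 Visual ratings on a 0–100 scale (100 = complete control) made versus untreated controls after 12 to 14 greenhouse days. Test chemicals, formulated in surfactant-containing non-phytotoxic solvent, applied preemergence to planted seeds or postemergence to 1- to 4-leaf plants (2 to 18 cm).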

corn = assay: Test C pre-/postemergence herbicide test; format: in vivo, Zea mays; conditions: for Corn plant response rating (crop injury, 0 = no effect, 100 = complete kill) at 250 g/ha: 250 g ai/ha; for Corn plant response rating (crop injury, 0 = no effect, 100 = complete kill) at 125 g/ha: 125 g ai/ha
In short: as §1

giant foxtail = assay: Test C pre-/postemergence herbicide test; format: in vivo, Setaria faberi; conditions: for pest or weed control at 250 g/ha: 250 g ai/ha; for pest or weed control at 125 g/ha: 125 g ai/ha
In short: as §1

kochia = assay: Test C pre-/postemergence herbicide test; format: in vivo, Kochia scoparia; conditions: for pest or weed control at 125 g/ha: 125 g ai/ha
In short: as §1

morningglory = assay: Test C pre-/postemergence herbicide test; format: in vivo, Ipomoea coccinea
In short: as §1

common ragweed = assay: Test C pre-/postemergence herbicide test; format: in vivo, Ambrosia elatior; conditions: for pest or weed control at 125 g/ha: 125 g ai/ha
In short: as §1

soybean = assay: Test C pre-/postemergence herbicide test; format: in vivo, Glycine max; conditions: for plant injury at 125 g/ha: 125 g ai/ha
In short: as §1

rice = assay: Test C flooded paddy test; format: in vivo, Oryza sativa; conditions: Oryza sativa
In short: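 Plants were grown to the 1- to 4-leaf stage (2–18 cm) and then treated postemergence, or grown to the 2-leaf stage for the flooded paddy test. They were held in a greenhouse for 12 to 14 days and then scored by eye against controls, where 0 is no effect and 100 is complete control.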

[1] = test system: smallflower umbrella sedge; assay: Test C flooded paddy test; format: in vivo, Cyperus difformis; conditions: Cyperus difformis
barnyardgrass = assay: Test C flooded paddy test; format: in vivo, Echinochloa crus-galli; conditions: Echinochloa crus-galli
In short: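 Weeds and wheat were sprayed after emergence, at a height of 2 to 18 cm (1–4 leaves), and paddy barnyardgrass was flooded and treated at two leaves. Assessment took place 12–14 days later in the greenhouse on a 0-to-100 visual control scale. A dash means no result was obtained.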

CCOC(=O)c1cccc(NC(=O)c2cc(C(C)(C)C)nn2CC)c1 [Compound 80, ethyl 3-[[[3-(1,1-dimethylethyl)-1-ethyl-1H-pyrazol-5-yl]carbonyl]-amino]benzoate]
pest or weed control at 2000 g/ha (velvetleaf; post-emergence, Postemergence, 0 to 100 scale, 0 no effect, 100 complete control, read-out: Plant response rating, Velvetleaf): 75%
pest or weed control at 500 g/ha (velvetleaf; pre-emergence, Preemergence, 500 g ai/ha, visual rating, 0 to 100 scale (0 no effect, 100 complete control), read-out: Velvetleaf plant response rating): 10%
pest or weed control at 2000 g/ha (velvetleaf; pre-emergence, Preemergence, visual rating, 0 to 100 scale (0 no effect, 100 complete control), read-out: Velvetleaf plant response rating): 10%
Plant response rating (0 = no effect, 100 = complete control), Surinam Grass (Surinam grass; 62 g ai/ha, preemergence): 0
pest or weed control at 250 g/ha (Surinam grass; Urochloa decumbens, post-emergence, 312 h, Postemergence, 250 g ai/ha, scale 0 to 100, 0 no effect, 100 complete control, read-out: Plant response rating, Surinam Grass): 80%
pest or weed control at 125 g/ha (Surinam grass; Urochloa decumbens, post-emergence, 312 h, postemergence, scale 0 to 100, read-out: Plant response rating, Surinam Grass): 80%
pest or weed control at 62 g/ha (Surinam grass; Urochloa decumbens, post-emergence, 312 h, postemergence, 62 g ai/ha, scale 0 to 100, read-out: Plant response rating, Surinam Grass): 80%
pest or weed control at 31 g/ha (Surinam grass; Urochloa decumbens, pre-emergence, 312 h, 31 g ai/ha, preemergence, scale 0 to 100, read-out: Plant response rating, Surinam Grass): 0%
pest or weed control at 125 g/ha (Surinam grass; Urochloa decumbens, pre-emergence, 312 h, scale 0 (no effect) to 100 (complete control), visual, 12 to 14 days, read-out: Plant response rating, Surinam Grass): 10%
Plant response rating (0 = no effect, 100 = complete control), Corn (corn; 62 g ai/ha, preemergence): 0
Corn plant response rating (crop injury, 0 = no effect, 100 = complete kill) at 250 g/ha (corn; Zea mays, post-emergence, 312 h, Postemergence, scale 0 to 100, 0 no effect, 100 complete control): 70%
Corn plant response rating (crop injury, 0 = no effect, 100 = complete kill) at 125 g/ha (corn; Zea mays, post-emergence, 312 h, postemergence, scale 0 to 100): 70%
Corn plant response rating (crop injury, 0 = no effect, 100 = complete kill) at 62 g/ha (corn; Zea mays, post-emergence, 312 h, postemergence, 62 g ai/ha, scale 0 to 100): 70%
Corn plant response rating (crop injury, 0 = no effect, 100 = complete kill) at 31 g/ha (corn; Zea mays, pre-emergence, 312 h, 31 g ai/ha, preemergence, scale 0 to 100): 0%
Corn plant response rating (crop injury, 0 = no effect, 100 = complete kill) at 125 g/ha (corn; Zea mays, pre-emergence, 312 h, scale 0 (no effect) to 100 (complete control), visual, 12 to 14 days): 10%
Corn plant response rating (crop injury, 0 = no effect, 100 = complete kill) at 250 g/ha (corn; Zea mays, pre-emergence, 312 h, scale 0 to 100 (0 no effect, 100 complete control), visual, 12 to 14 days): 20%
Plant response rating (0 = no effect, 100 = complete control), Foxtail, Giant (giant foxtail; 62 g ai/ha, preemergence): 10
pest or weed control at 250 g/ha (giant foxtail; Setaria faberi, post-emergence, 312 h, Postemergence, scale 0 to 100, 0 no effect, 100 complete control, read-out: Plant response rating, Foxtail, Giant): 80%
pest or weed control at 125 g/ha (giant foxtail; Setaria faberi, post-emergence, 312 h, postemergence, scale 0 to 100, read-out: Plant response rating, Foxtail, Giant): 80%
pest or weed control at 62 g/ha (giant foxtail; Setaria faberi, post-emergence, 312 h, postemergence, 62 g ai/ha, scale 0 to 100, read-out: Plant response rating, Foxtail, Giant): 70%
pest or weed control at 31 g/ha (giant foxtail; Setaria faberi, pre-emergence, 312 h, 31 g ai/ha, preemergence, scale 0 to 100, read-out: Plant response rating, Foxtail, Giant): 10%
pest or weed control at 125 g/ha (giant foxtail; Setaria faberi, pre-emergence, 312 h, scale 0 (no effect) to 100 (complete control), visual, 12 to 14 days, read-out: Plant response rating, Foxtail, Giant): 40%
pest or weed control at 250 g/ha (giant foxtail; Setaria faberi, pre-emergence, 312 h, scale 0 to 100 (0 no effect, 100 complete control), visual, 12 to 14 days, read-out: Plant response rating, Foxtail, Giant): 50%
Plant response rating (0 = no effect, 100 = complete control), Kochia (kochia; 62 g ai/ha, preemergence): 10
pest or weed control at 250 g/ha (kochia; Bassia scoparia, post-emergence, Postemergence, 250 g ai/ha, scale 0 to 100, 0 no effect, 100 complete control, read-out: Plant response rating, Kochia): 100%
pest or weed control at 125 g/ha (kochia; Bassia scoparia, post-emergence, postemergence, scale 0 to 100, read-out: Plant response rating, Kochia): 100%
pest or weed control at 62 g/ha (kochia; Bassia scoparia, post-emergence, postemergence, 62 g ai/ha, scale 0 to 100, read-out: Plant response rating, Kochia): 100%
pest or weed control at 31 g/ha (kochia; Bassia scoparia, pre-emergence, 31 g ai/ha, preemergence, scale 0 to 100, read-out: Plant response rating, Kochia): 10%
pest or weed control at 125 g/ha (kochia; Bassia scoparia, pre-emergence, scale 0 (no effect) to 100 (complete control), visual, 12 to 14 days, read-out: Plant response rating, Kochia): 10%
Plant response rating (0 = no effect, 100 = complete control), Morningglory (morningglory; 62 g ai/ha, preemergence): 20
pest or weed control at 250 g/ha (morningglory; Ipomoea, post-emergence, Postemergence, 250 g ai/ha, scale 0 to 100, 0 no effect, 100 complete control, read-out: Plant response rating, Morningglory): 90%
pest or weed control at 125 g/ha (morningglory; Ipomoea, post-emergence, postemergence, 125 g ai/ha, scale 0 to 100, read-out: Plant response rating, Morningglory): 90%
pest or weed control at 62 g/ha (morningglory; Ipomoea, post-emergence, postemergence, 62 g ai/ha, scale 0 to 100, read-out: Plant response rating, Morningglory): 90%
pest or weed control at 31 g/ha (morningglory; Ipomoea, pre-emergence, 31 g ai/ha, preemergence, scale 0 to 100, read-out: Plant response rating, Morningglory): 0%
Plant response rating (0 = no effect, 100 = complete control), Ragweed (common ragweed; 62 g ai/ha, preemergence): 0
pest or weed control at 250 g/ha (common ragweed; Ambrosia artemisiifolia, post-emergence, Postemergence, 250 g ai/ha, scale 0 to 100, 0 no effect, 100 complete control, read-out: Plant response rating, Ragweed): 70%
pest or weed control at 125 g/ha (common ragweed; Ambrosia artemisiifolia, post-emergence, postemergence, scale 0 to 100, read-out: Plant response rating, Ragweed): 70%
pest or weed control at 62 g/ha (common ragweed; Ambrosia artemisiifolia, post-emergence, postemergence, 62 g ai/ha, scale 0 to 100, read-out: Plant response rating, Ragweed): 70%
pest or weed control at 31 g/ha (common ragweed; Ambrosia artemisiifolia, pre-emergence, 31 g ai/ha, preemergence, scale 0 to 100, read-out: Plant response rating, Ragweed): 0%
pest or weed control at 125 g/ha (common ragweed; Ambrosia artemisiifolia, pre-emergence, scale 0 (no effect) to 100 (complete control), visual, 12 to 14 days, read-out: Plant response rating, Ragweed): 0%
Plant response rating (0 = no effect, 100 = complete control), Soybean (soybean; 62 g ai/ha, preemergence): 0
plant injury at 250 g/ha (soybean; Glycine max, post-emergence, Postemergence, 250 g ai/ha, scale 0 to 100, 0 no effect, 100 complete control, read-out: Plant response rating, Soybean): 100%
plant injury at 125 g/ha (soybean; Glycine max, post-emergence, postemergence, scale 0 to 100, read-out: Plant response rating, Soybean): 90%
plant injury at 62 g/ha (soybean; Glycine max, post-emergence, postemergence, 62 g ai/ha, scale 0 to 100, read-out: Plant response rating, Soybean): 90%
plant injury at 31 g/ha (soybean; Glycine max, pre-emergence, 31 g ai/ha, preemergence, scale 0 to 100, read-out: Plant response rating, Soybean): 0%
plant injury at 125 g/ha (soybean; Glycine max, pre-emergence, scale 0 (no effect) to 100 (complete control), visual, 12 to 14 days, read-out: Plant response rating, Soybean): 0%
plant injury at 62 g/ha (rice; 62 g ai/ha, scale 0 to 100 (0 no effect, 100 complete control), read-out: Rice plant response rating): 20%
plant injury at 125 g/ha (rice; 125 g ai/ha, scale of 0 to 100, 0 is no effect, 100 is complete control, read-out: Rice plant response rating): 40%
plant injury at 250 g/ha (rice; 250 g ai/ha, scale of 0 to 100, 0 is no effect, 100 is complete control, read-out: Rice plant response rating): 40%
plant injury at 500 g/ha (rice; 500 g ai/ha, visual rating after 12 to 14 days, scale 0 to 100 (0 no effect, 100 complete control), read-out: Plant response rating, Rice): 40%
pest or weed control at 62 g/ha ([1]; 62 g ai/ha, scale 0 to 100 (0 no effect, 100 complete control), read-out: Sedge, Umbrella plant response rating): 70%
pest or weed control at 125 g/ha ([1]; 125 g ai/ha, scale of 0 to 100, 0 is no effect, 100 is complete control, read-out: Sedge, Umbrella plant response rating): 70%
pest or weed control at 250 g/ha ([1]; 250 g ai/ha, scale of 0 to 100, 0 is no effect, 100 is complete control, read-out: Sedge, Umbrella plant response rating): 70%
pest or weed control at 500 g/ha ([1]; 500 g ai/ha, visual rating after 12 to 14 days, scale 0 to 100 (0 no effect, 100 complete control), read-out: Plant response rating, Sedge, Umbrella): 70%
pest or weed control at 62 g/ha (barnyardgrass; 62 g ai/ha, scale 0 to 100 (0 no effect, 100 complete control), read-out: Barnyardgrass plant response rating): 0%
pest or weed control at 125 g/ha (barnyardgrass; 125 g ai/ha, scale of 0 to 100, 0 is no effect, 100 is complete control, read-out: Barnyardgrass plant response rating): 20%
pest or weed control at 250 g/ha (barnyardgrass; 250 g ai/ha, scale of 0 to 100, 0 is no effect, 100 is complete control, read-out: Barnyardgrass plant response rating): 40%
pest or weed control at 500 g/ha (barnyardgrass; 500 g ai/ha, visual rating after 12 to 14 days, scale 0 to 100 (0 no effect, 100 complete control), read-out: Plant response rating, Barnyardgrass): 60%

Reference: patent publication US20060069132A1, “Azolecarboxamide herbicides” (priority 2004, published 2006)
